The test deals with Carbonic anhydrase 2 (Homo sapiens, UniProt P00918).

Molecules are shown by their SMILES. pKi: −log10 of the molar value. Where only a bound is given, the exact number is not on record here.

Broadly, the pKi is −log10 of the Ki, conventionally taken in molar units. A higher pKi goes with a small Ki.

In turn, `[F-].[Na+]` [SODIUM FLUORIDE] had a pKi of less than 0.70.

The values are drawn from ChEMBL document CHEMBL3352705, “Anion inhibition study of the β-class carbonic anhydrase (PgiCAb) from the oral pathogen Porphyromonas gingivalis” (Bioorg Med Chem Lett, 2014).
